Numbers after ± are expanded uncertainties.
Legend:
[1] = for speed of sound / mass density / viscosity: 101.33 kPa, Liquid; for speed of sound: Single path-length method; for mass density: Vibrating tube method; for viscosity: Capillary tube (Ostwald / Ubbelohde) method
[2] = isobaric coefficient of expansion; conditions: 298.15 K; 101.33 kPa; Liquid; Curve Fitting Density Data
[3] = refractive index (Na D-line) (dimensionless); conditions: 101.33 kPa, Liquid, Standard Abbe refractometry

CCCC[N+]1(C)CCCC1.O=S(=O)([N-]S(=O)(=O)C(F)(F)F)C(F)(F)F
speed of sound ([1]; 278.15 K): 1316 ± 3 m/s | mass density ([1]; 278.15 K): 1412.36 ± 5.7 kg/m3 | speed of sound ([1]; 283.15 K): 1303 ± 3 m/s | mass density ([1]; 283.15 K): 1407.86 ± 5.7 kg/m3 | speed of sound ([1]; 288.15 K): 1291 ± 3 m/s | mass density ([1]; 288.15 K): 1403.45 ± 5.6 kg/m3 | viscosity ([1]; 293.15 K): 98.07 ± 4.1 mPa·s | speed of sound ([1]; 293.15 K): 1280 ± 3 m/s | mass density ([1]; 293.15 K): 1399.02 ± 5.6 kg/m3 | viscosity ([1]; 298.15 K): 76.92 ± 3.2 mPa·s | speed of sound ([1]; 298.15 K): 1269 ± 3 m/s | mass density ([1]; 298.15 K): 1394.59 ± 5.6 kg/m3 | viscosity ([1]; 303.15 K): 61.47 ± 2.5 mPa·s | speed of sound ([1]; 303.15 K): 1258 ± 3 m/s | mass density ([1]; 303.15 K): 1390.2 ± 5.6 kg/m3 | viscosity ([1]; 308.15 K): 49.94 ± 2 mPa·s | speed of sound ([1]; 308.15 K): 1247 ± 3 m/s | mass density ([1]; 308.15 K): 1385.8 ± 5.6 kg/m3 | viscosity ([1]; 313.15 K): 41.22 ± 1.7 mPa·s | speed of sound ([1]; 313.15 K): 1236 ± 3 m/s | mass density ([1]; 313.15 K): 1381.42 ± 5.5 kg/m3 | viscosity ([1]; 318.15 K): 34.32 ± 1.4 mPa·s | speed of sound ([1]; 318.15 K): 1225 ± 3 m/s | mass density ([1]; 318.15 K): 1377.04 ± 5.5 kg/m3 | viscosity ([1]; 323.15 K): 28.95 ± 1.2 mPa·s | speed of sound ([1]; 323.15 K): 1214 ± 3 m/s | mass density ([1]; 323.15 K): 1372.69 ± 5.5 kg/m3 | viscosity ([1]; 328.15 K): 24.68 ± 1 mPa·s | speed of sound ([1]; 328.15 K): 1204 ± 3 m/s | mass density ([1]; 328.15 K): 1368.35 ± 5.5 kg/m3 | viscosity ([1]; 333.15 K): 21.23 ± 0.86 mPa·s | speed of sound ([1]; 333.15 K): 1193 ± 3 m/s | mass density ([1]; 333.15 K): 1364.02 ± 5.5 kg/m3 | viscosity ([1]; 338.15 K): 18.42 ± 0.75 mPa·s | speed of sound ([1]; 338.15 K): 1183 ± 3 m/s | mass density ([1]; 338.15 K): 1359.71 ± 5.5 kg/m3 | viscosity ([1]; 343.15 K): 16.12 ± 0.65 mPa·s | speed of sound ([1]; 343.15 K): 1173 ± 3 m/s | mass density ([1]; 343.15 K): 1355.41 ± 5.4 kg/m3 | Normal melting temperature ([1]; Crystal, visual observation): -8.00 ± 0.5 °C | isobaric coefficient of expansion [2]: 0.000633 1/K | refractive index ([3]; 283.15 K): 1.42717 ± 0.00037 | refractive index ([3]; 288.15 K): 1.42573 ± 0.00037 | refractive index ([3]; 293.15 K): 1.4243 ± 0.00037 | refractive index ([3]; 298.15 K): 1.42304 ± 0.00037 | refractive index ([3]; 303.15 K): 1.42164 ± 0.00037 | refractive index ([3]; 308.15 K): 1.42021 ± 0.00037 | refractive index ([3]; 313.15 K): 1.41878 ± 0.00037 | refractive index ([3]; 318.15 K): 1.41736 ± 0.00037 | refractive index ([3]; 323.15 K): 1.41588 ± 0.00037 | refractive index ([3]; 328.15 K): 1.41447 ± 0.00037 | refractive index ([3]; 333.15 K): 1.413 ± 0.00037 | refractive index ([3]; 338.15 K): 1.4116 ± 0.00037 | refractive index ([3]; 343.15 K): 1.4102 ± 0.00037

— the NIST ThermoML archive (doi:10.1016/j.jct.2009.06.020)
